From patent publication US8691818B2, “Cyclic triazo and diazo sodium channel blockers” (University Of Greenwich, priority 2008, dated 2014)
Where two headings read alike, the source gives them in different places.

Tests used:
L-Type Calcium Channels = assay: L-type calcium channels: inhibition of binding of [3H]nitrendipine to rat cerebral cortex membranes; conditions: for L-type Ca2+ % inhibition @ 10 μM: [3H]nitrendipine binding; for IC50: read-out: L-type Ca2+ IC50 (μM) (extrapolated from 10 μM inh'n), extrapolated assuming binding slope 1.0
hERG [1] = molecular target: T1, hERG (Homo sapiens, UniProt Q12809); assay: hERG: inhibition of binding of [3H]astemizole to HEK-293 cells expressing human recombinant hERG; conditions: for inhibition at 10 µM: human, probe [3H]astemizole
T1 sequence (Q12809 whole entry): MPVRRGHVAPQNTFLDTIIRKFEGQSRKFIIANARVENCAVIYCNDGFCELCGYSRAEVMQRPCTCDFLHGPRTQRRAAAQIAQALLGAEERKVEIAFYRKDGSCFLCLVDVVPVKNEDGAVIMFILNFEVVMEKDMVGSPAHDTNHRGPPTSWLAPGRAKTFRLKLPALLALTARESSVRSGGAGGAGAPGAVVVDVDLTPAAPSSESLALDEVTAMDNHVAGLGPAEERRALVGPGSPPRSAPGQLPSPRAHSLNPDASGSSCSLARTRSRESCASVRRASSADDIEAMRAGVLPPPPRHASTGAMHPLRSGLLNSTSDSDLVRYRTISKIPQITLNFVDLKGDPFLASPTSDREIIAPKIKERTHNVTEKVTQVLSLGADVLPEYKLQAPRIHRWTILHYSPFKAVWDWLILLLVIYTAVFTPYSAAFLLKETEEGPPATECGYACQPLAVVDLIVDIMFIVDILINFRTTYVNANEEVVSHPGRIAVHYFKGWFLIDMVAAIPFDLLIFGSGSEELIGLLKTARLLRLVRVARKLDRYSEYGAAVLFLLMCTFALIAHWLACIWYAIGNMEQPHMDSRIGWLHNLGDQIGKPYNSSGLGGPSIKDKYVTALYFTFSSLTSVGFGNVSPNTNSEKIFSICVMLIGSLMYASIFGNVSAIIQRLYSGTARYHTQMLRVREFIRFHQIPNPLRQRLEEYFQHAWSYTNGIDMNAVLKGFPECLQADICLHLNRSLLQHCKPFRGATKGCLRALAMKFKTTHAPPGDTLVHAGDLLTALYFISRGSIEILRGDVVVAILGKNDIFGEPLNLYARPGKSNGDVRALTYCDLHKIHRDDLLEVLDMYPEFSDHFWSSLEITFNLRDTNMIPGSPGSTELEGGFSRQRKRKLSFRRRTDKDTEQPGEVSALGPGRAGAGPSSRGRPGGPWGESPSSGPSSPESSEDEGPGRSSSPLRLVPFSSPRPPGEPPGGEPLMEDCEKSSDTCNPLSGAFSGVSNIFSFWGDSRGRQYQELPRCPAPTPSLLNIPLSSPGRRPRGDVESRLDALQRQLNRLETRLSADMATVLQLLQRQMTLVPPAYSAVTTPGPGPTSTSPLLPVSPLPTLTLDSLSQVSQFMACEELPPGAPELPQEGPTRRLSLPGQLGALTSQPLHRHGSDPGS

sodium channel = assay: [14C]guanidine flux: veratrine-evoked uptake of [14C]guanidine into rat forebrain synaptosomes (primary sodium channel assay); assay type: biochemical; conditions: 30° for 2½ min
Method in brief: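 Synaptosomal fraction from male Wistar rat forebrain (without cerebellum/medulla), 20-25 mg wet weight/ml. Veratrine-evoked [14C]guanidine uptake at 30° for 2½ min across a compound concentration range; IC50 from concentration-effect curves, mean±sem.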

Rat microsome stability = assay type: in vitro ADME; conditions: 1 μM, rat liver microsomes
Description: Compounds were sent to BioFocus for measurement of their stability@1 μM concentration following incubation with rat liver microsomes for 40 minutes@37°.

[2] = molecular target: T2, DiHydroFolate Reductase (DHFR) (Rattus norvegicus, UniProt Q920D2); assay: Inhibition of binding of [3H]methotrexate to rat liver homogenate supernatant; conditions: for inhibition at 125 µM: read-out: [3H]mtx binding (% inhibition @ 125 μM)
T2 construct: from tissue; host or cells: rat liver homogenate supernatant
T2 sequence (Q920D2 1-187): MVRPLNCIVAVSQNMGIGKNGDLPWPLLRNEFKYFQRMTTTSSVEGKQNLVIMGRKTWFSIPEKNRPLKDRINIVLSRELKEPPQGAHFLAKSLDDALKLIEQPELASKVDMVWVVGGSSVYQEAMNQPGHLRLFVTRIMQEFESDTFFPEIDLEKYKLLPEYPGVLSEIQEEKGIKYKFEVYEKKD
Method in brief: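 Displacement of [3H]methotrexate binding to rat liver homogenate supernatant, prepared at 4 °C in pH 6.0 phosphate buffer with 15 mM dithiothreitol. Values are mean±sem over the number of experiments shown.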

[3] = test system: 0.4 mm slices of rat hippocampus; assay: tissue or blood; assay type: cell-based; conditions: for Emax at 30 µM: Rattus norvegicus, read-out: % protection (v 1 μM TTX) (mean ± sem) (no. of expt's)
Sodium Channel, Site 2 = assay type: binding, Wistar Rat; conditions: read-out: [3H]BTX-B binding Extrapolated IC50
hERG [4] = molecular target: T1, hERG
hERG [5] = molecular target: T1, hERG; assay: in vitro
[6] = 30 μM, iodoacetate 400 μM insult, slice ATP

Row | Compound | L-type Ca2+ % inhibition @ 10 μM (L-Type Calcium Channels) [%] | IC50 (L-Type Calcium Channels) [µM] | IC50 (hERG [1]) [µM] | inhibition at 10 µM (hERG [1]) [%] | IC50 (sodium channel) [µM] | Microsome stability % metabolized (40 min incubation 37°) (Rat microsome stability) [%] | Emax at 30 µM [3, 6] [%] | inhibition at 125 µM ([2]; 125 μM) [%] | further results
1 | CCc1nc(N)nc(N)c1-c1ccc(Cl)cc1 [CEN-48, 2,4-Diamino-5-(4-chlorophenyl)-6-ethyl-pyrimidine, reference compound] | −1 | > 190 | 46 | 18 | 5.8 |  |  |  | 
2 | Nc1nnc(-c2cc(C(F)(F)F)cc(C(F)(F)F)c2)c(N)n1 [CEN-92, 3,5-Diamino-6-(3,5-bistrifluoromethylphenyl)-1,2,4-triazine] | 3 | > 190 | > 200 | 4 |  | 0.0 | 32 |  | [3H]mtx binding (% inhibition @ 125 μM) ([2]; 125 μM, listed as 92, 125 µM): 15%; IC50 (sodium channel; listed as 92): 144 µM
3 | N=c1nc(N)c(-c2ccccc2Oc2ccccc2)nn1CC(F)(F)F [CEN-98, 5(3)-Amino-6-(2-phenoxyphenyl)-2,3(2,5)-dihydro-3(5)-imino-2-(1,1,1-trifluoroethyl)-1,2,4-triazine] | −18 | > 190 | 46 | 18 | 8.9 | 6.0 | 11 | 41 | 
4 | NC1=N[C@H](O)[C@H]2[C@H]3O[C@]4(O)O[C@@H]([C@@H](O)[C@@]2(N1)[C@@H]4O)[C@]3(O)CO [TTX, tetrodotoxin, reference compound] |  |  |  |  |  |  |  |  | % protection (v 1 μM TTX) [3]: 100%
5 | CCOc1ccc2ccccc2c1-c1nnc(N)nc1N [CEN-110] |  |  | > 200 | -12 | 135 | 61.5 |  | -23 | melting point: 178 to 180 °C
6 | Nc1nnc(-c2sc(Cl)c(Cl)c2Cl)c(N)n1 [CEN-79, 3,5-Diamino-6-[2-(3,4,5 trichlorothienyl)]-1,2,4-triazine] | 17 | 48.8 | > 200 | 3 | 209 | 0.0 |  | -1 | melting point: 263 to 265 °C
7 | Nc1nnc(C(c2ccccc2)C2CCCC2)c(N)n1 (stereo not shown) [CEN-163, 3,5-Diamino-6-(1-cyclopentyl-1-phenylmethy)-1,2,4-triazine] |  |  | 81 | 11 | 8 |  | 56 | 13 | 
8 | Nc1nnc(-c2cccc(Cl)c2Cl)c(N)n1 [CEN-1, Lamotrigine, reference compound] |  |  |  |  | 219 | 0.5 | 41 |  | IC50 (Sodium Channel, Site 2): > 200 µM
9 | Nc1cnc(-c2cccc(Cl)c2Cl)c(N)n1 [CEN-87, 2,6-Diamino-3-(2,3-dichlorophenyl)pyrazine] | 7 | 133 | > 200 | 3 | 288 |  |  | -5 | melting point: 150 to 153 °C
10 | Nc1nnc(-c2ccccc2OCc2ccccc2)c(N)n1 [CEN-160, 3,5-Diamino-6-(2-Benzyloxyphenyl)-1,2,4-triazine] |  |  | > 200 | 0 | 295 |  | 0 | -11 | 
11 | 6-Adamantyl-3,5-diamino-1,2,4-triazine [CEN-83] |  |  |  |  | 40.8 |  |  |  | IC50 (hERG [4]): 52 µM; [3H]mtx binding (% inhibition @ 125 μM) ([2]; 125 μM): −5%
12 | Nc1nnc(-c2cc(OCC(F)(F)F)ccc2OCC(F)(F)F)c(N)n1 [CEN-140, 3,5-Diamino-6-[2,5-bis(2,2,2-trifluoroethoxy)phenyl]-1,2,4-triazine] |  |  |  |  | 229 |  | -11 | 3 | 
13 | Nc1nnc(-c2cccc(Oc3ccccc3)c2)c(N)n1 [CEN-84, 3,5-Diamino-6-(3-phenoxphenyl)-1,2,4-triazine] | 7 | 133 | 101 | 9 | 43.7 | 33.0 |  | -4 | melting point: 152 to 153 °C
14 | N=c1nc(N)c(-c2cc(Cl)cc(Cl)c2Cl)nn1CC(F)F [CEN-85, 5(3)-Amino-6-(2,3,5-trichlorophenyl)-2,3(2,5)-dihydro-3(5)-imino-2-(2,2-difluoroethyl)-1,2,4-triazine] | −15 | > 190 | 16 | 39 | 3.6 |  |  | -5 | melting point: 168 to 170 °C (dec.)
15 | Nc1nnc(-c2ccc3ccccc3c2)c(N)n1 [CEN-73, 3,5-Diamino-6-(2-naphthyl)-1,2,4-triazine] | 8 | 115 | > 200 | 3 | 81.2 | 62.5 |  | 5 | melting point: 215 to 216 °C
16 | Nc1ncc(-c2cc(Cl)cc(Cl)c2Cl)c(N)n1 [CEN-47, 2,4-Diamino-5-(2,3,5-trichlorophenyl)pyrimidine, reference compound] |  |  | 35 | 22 | 13.2 |  | 98 |  | 
17 | Nc1nnc2c(n1)-c1cccc3cccc-2c13 [CEN-155] |  |  | 35 |  | 34 |  |  |  | inhibition at 125 µM [2]: -6%; inhibition at 10 µM (hERG [5]): 22%
18 | CN1CCN(c2ncc(-c3cc(Cl)cc(Cl)c3Cl)c(N)n2)CC1 [Sipatrigine, reference compound] |  |  |  |  |  |  | 58 |  | 
19 | Nc1nnc(C(c2ccccc2)c2ccccc2)c(N)n1 [CEN-130, 3,5-Diamino-6-(diphenylmethy)-1,2,4-triazine] |  |  | > 200 | -2 | 20.4 |  | 39 | 2 | 
20 | Nc1cnc(-c2cc(Cl)cc(Cl)c2Cl)c(N)n1 [CEN-86, 2,6-Diamino-3-(2,3,5-trichlorophenyl)pyrazine] | 9 | 101 | > 200 | 1 | 14.1 |  | 98 | -5 | 
21 | O=C1NC(=O)C(c2ccccc2)(c2ccccc2)N1 [DPH, reference compound] |  |  |  |  |  |  |  |  | % protection (v 1 μM TTX) (mean ± sem) (no. of expt's) [3, 6]: 48%
22 | Nc1nnc(C2(c3ccc(Cl)cc3)CCC2)c(N)n1 [CEN-152, 3,5-Diamino-6-[1-(4-chlorophenyl)-1-cyclobuty]-1,2,4-triazine] |  |  |  |  | 479 |  | -10 | 1 | 
23 | Cn1nc(-c2cc(C(F)(F)F)cc(C(F)(F)F)c2)c(N)nc1=N [CEN-99, 5(3)-Amino-6-[3,5-(bis-trifluoromethyl)phenyl]-2,3(2,5)-dihydro-3(5)-imino-2-methyl-1,2,4-triazine methanesulfonate] |  |  | 34 | 23 | 135 | 0.0 |  | -1 | 
24 | N=c1nc(N)c(-c2cccc(Cl)c2Cl)nn1CC(F)(F)F [CEN-67, 5(3)-Amino-6-(2,3-dichlorophenyl)-2,3(2,5)-dihydro-3(5)-imino-2-(2,2,2-trifluoroethyl)-1,2,4-triazine] | −16 | > 190 | 57 | 15 | 4.3 | 0.5 | 3 | 11 | 
